In brackets after ≈: the same amount, converted by molar mass. Like-named read-outs stand apart in the source and are kept apart here.
Key:
[1] = cited from earlier work
[2] = cited from earlier work; remark: listed apart in the source
[3] = system: conditioned place preference; assay: Psychological dependence on tramadol by change in conditioned place preference (CPP); type: in vivo, Sprague-Dawley rats; settings: rats; for Change (min) in the time stayed in non-preferred compartment / Change (min) in the time stayed in preferred compartment: post- vs pre-conditioning, 15 minutes
Procedure: 3. Test for Measuring Psychological Dependence on Tramadol by Assessment of Dependence Potential
In order to measure psychological dependence which is one of the side effects of tramadol, a change in conditioned place preference (CPP) was measured. Conditioned place preference boxes are divided into three boxes, that is, a white box, a black box and a gray box, as shown in FIG. 8. The gray box is a meddle portion in which an animal can choose between the white box and the black box, and the gray box is […]. The black box has a bottom composed of stainless steel rods having a diameter of 4.8 mm and a spacing of 16 mm, and the white box has a bottom composed of stainless steel meshes having a size of 1.25×1.25 cm. The gray box is 12 cm in width, 22 cm in length, and 21 cm in height, and the white box and the black box are 28 cm in width, 21 cm in length, and 21 cm in height.
A series of test procedures are as follows. 5-Week-old male Sprague-Dawley rats (SD rats) were purchased and acclimated for one week. Then, on days 1, 2 and 3 of the test (preconditioning step), in a state in which each rat was not treated with a drug or normal saline for injection, each rat was placed in the gray compartment, and then the door was opened and the time that each rat stayed in each compartment was measured for 15 minutes. Then, based on the mean of the measurement results, the compartment preferred by the rats in the preconditioning step (that is, the compartment in which the rats stayed longer, among the white compartment and the black compartment) was determined.
The next step is a conditioning step corresponding to day 4 to day 11. On days 4, 6, 8 and 10, the corresponding dose of each of the Test Example and the Comparative Examples was administered by intraperitoneal injection to each rat, and after 30 minutes, the rats were adapted to the non-preferred compartment for 30 minutes so as to allow the rats to remember the non-preferred compartment in association with tramadol. On the remaining days 5, 7, 9 and 11, normal saline for injection was administered by intraperitoneal injection to the rats, and after 30 minutes, the rats were adapted to the preferred compartment for 30 minutes so as to allow the rats to remember the preferred compartment in association with the saline solution. On day 12 corresponding to a final step (post-conditioning step), in a state in which neither the drug nor normal saline for injection was administered to the rats, the rats were placed in the gray compartment, and then the door was opened and the time that the rats stayed in each compartment was measured for 15 minutes (see Table 7).
The difference between the time that the rats stayed in the tramadol-associated place (non-preferred compartment) in the post-conditioning step and the time that the rats stayed in the non-preferred compartment in the pre-conditioning step indicates the tramadol-induced change in conditioned place preference, that is, psychological dependence on the drug.
Next, based on the test results, the standardized J-T statistic and the significance level (p-value) were confirmed using a Jonckheere-terpstra test which is a non-parametric statistical method.

[4] = tramadol 2.6 mg/kg intraperitoneal on days 4, 6, 8, 10
[5] = tramadol 3.9 mg/kg intraperitoneal on days 4, 6, 8, 10
[6] = tramadol 10.3 mg/kg intraperitoneal on days 4, 6, 8, 10

SMILES: Cc1ccc(-c2cc(C(F)(F)F)nn2-c2ccc(S(N)(=O)=O)cc2)cc1 [Celecoxib]
- in vivo half-life [1]: about 11 hours
- solubility in water ([2]; 20° C.): 3.3 µg/mL (≈ 8.65 µM)

SMILES: COc1cccc(C2(O)CCCCC2CN(C)C)c1 (centres unmarked) [tramadol]
- Change (min) in the time stayed in non-preferred compartment [3, 4]: 1.3 min
- Change (min) in the time stayed in preferred compartment [3, 4]: -0.17 min
- Change (min) in the time stayed in non-preferred compartment [3, 5]: 2.8 min
- Change (min) in the time stayed in preferred compartment [3, 5]: 2.20 min
- Change (min) in the time stayed in non-preferred compartment [3, 6]: 3.3 min
- Change (min) in the time stayed in preferred compartment [3, 6]: 3.03 min
- psychological dependence on tramadol (FIG. 9) ([3]; tramadol 37.5 mg (Comparative Example 5) or 100 mg (Comparative Example 6) compared to Test Example 2 (tramadol 25 mg) and Comparative Example 4 (tramadol 0 mg)): greatly increased
- blood half-life ([1]; in vivo): about 6 hours
- solubility in water [2]: very soluble in water
